Results reported in US10960088B2, “Macrocycles, cobalt and iron complexes of same, and methods of making and using same” (The Research Foundation for The State University of New York, priority 2013, dated 2021).

How the values were obtained:
[1] = Effective magnetic moment in solution from magnetic susceptibility (NMR); type: physicochemical; conditions: for μeff: 5 mM Co^II complex in D2O; for magnetic moment: 25° C. in D2O
Protocol: The effective magnetic moment (μeff) was calculated by using a previously known method. 5 mM Co^II complex and 5% t-butanol by volume was placed in a NMR insert while the outer NMR tube contained 5% by volume t-butanol in D2O. The μeff was calculated at 298 K (T) and monitored over a period of 72 hours using the following approach.
The mass susceptibility of solute (χg) was calculated by obtaining the observed frequency shift of the reference (Δf) in Hz, the spectrometer frequency (f) in Hz, the mass of the substance per cm^3 of solution (m), and the mass susceptibility of solvent D2O (χ0=−0.6466×10^−6 cm^3/g). The last term is neglected due to the minimal contribution to mass susceptibility of solute. The molar susceptibility (χm) is the product of χg multiplied by the molecular weight of the Co^II complex.
The effective magnetic moment was calculated by using a previously known method. In a typical experiment, oxygen-free solution of 8-20 mM [Co(TPT)]^2+ in deuterium oxide, pD 7.0, containing 5% tert-butanol by volume was placed in an NMR tube, while a reference solution of 5% tert-butanol (v/v) in deuterium oxide, pD 7.0, was placed into NMR tube insert. All solutions of [Co(TPT)]^2+ were purged with argon and kept in the absence of air. The effective magnetic moment (μeff) was calculated at 298 K (T) using the following equations 7-8. In these equations the mass susceptibility of solute (χg) was calculated by obtaining the observed frequency shift of the reference (Δf) in Hz, the spectrometer frequency (f) in Hz, the mass of the substance per cm^3 of the solution (m), and the mass susceptibility of deuterium oxide (χ0=−0.6466×10^−6 cm^3/g). The last term in eq. SI is neglected due to the minimal contribution to mass susceptibility of solute. The molar susceptibility (χm) is the product of χg multiplied by the molecular weight of the [Co(TPT)]Cl2 complex. Reported value of the effective magnetic moment was obtained by averaging of three independent experiments. χg=(−3Δf)/(4πfm)+χ0+[χ0(d0−ds)]/m eq. 7 μeff=2.84(χmT)^1/2 eq. 8

[2] = Exchange rate constants (omega plot); conditions: 10 mM complex; for kex: 20 mM HEPES pH 7.4, 100 mM NaCl, B1 8-24 μT, presat 4 s, 37° C., 11.7 T
Protocol: Exchange rate constants were calculated following a previously reported procedure. Measurements of on-resonance (Mz) and off-resonance (Mo) were acquired at different presaturation pulse powers between 350-1000 Hz (8-24 μT) applied for 4 seconds at 37° C. The exchange rate constant (kex) is calculated from the x-intercept from the plot of Mz/(Mo−Mz) against 1/ω1^2 (ω1 in rad/s). The rate constant, kex, is converted into units of s^−1. Samples contained 10 mM Co^II complex, 20 mM HEPES pH 7.4, and 100 mM NaCl.
The exchange rate constants were calculated by using a previously reported procedure. The magnetization of the on-resonance (Mz) and off-resonance (Mo) were acquired at different pre-saturation pulse powers between 350-1090 Hz applied for 4 seconds. To calculate the exchange rate constant (kb), the x-intercept (−1/kb^2) was obtained from the plot of Mz/(Mo−Mz) against 1/ω1^2 (ω1 in rad/s). Samples contained 16 mM [Co(TPT)]Cl2, 200 mM NaCl, and 40 mM MES or HEPES at pH 6.4-7.5. Measurements were carried out at 37° C.

[3] = Displacement of Co^II by Cu^II monitored by UV-vis; type: physicochemical; conditions: 10-fold excess of Cu^II
Protocol: Samples contained 200 μM Co^II complex, 10 mM MES buffer pH 5.5 and 1, 4, or 10 equivalents of CuCl2. The formation of the Cu^II complexes was monitored at 264 nm, 286 nm, 312 nm and 310 nm for [Cu(TCMT)]^2+, [Cu(NOPE)]^2+, [Cu(TCMC)]^2+, and [Cu(CCRM)]^2+, respectively. A previously reported procedure was followed.

[4] = Dissociation of complex over time monitored by 1H NMR; type: physicochemical; conditions: for % Dissociation Anions / % Dissociation Acidic: 10 mM Co^II complex; for % Dissociation Anions: 0.40 mM Na2HPO4, 25 mM K2CO3, 100 mM NaCl, pD 7.5-7.9, 12 hours at 37° C.; for % Dissociation Acidic: pD 3.5-3.9, 100 mM NaCl, 12 hours at 37° C.; for dissociation in presence of phosphate and carbonate (in words) / dissociation under acidic conditions (in words): 10 mM complex, 100 mM NaCl; for dissociation in presence of phosphate and carbonate (in words): 0.40 mM Na2HPO4, 25 mM K2CO3, pD 7.5-7.9, 12 hrs at 37° C.; for dissociation under acidic conditions (in words): D2O, pD 3.5-3.9, 1 hr vs 12 hrs (NOPE 4 hrs) at 37° C.
Protocol: Dissociation of the Co^II complexes was monitored via ^1H NMR spectroscopy of samples incubated at 37° C. over a period of 12 hours. To monitor acid dissociation, samples contained 10 mM Co^II complex, 100 mM NaCl, and 3-5 mM 3-(trimethylsilyl)-1-propanesulfonic acid sodium salt as a standard at pD 3.5-3.9. To assess the complexes in the presence of biologically relevant anions, solutions contained 10 mM Co^II complex, 100 mM NaCl, 0.40 mM Na2HPO4, 25 mM K2CO3, and 5 mM 3-(trimethylsilyl)-1-propanesulfonic acid sodium salt as a standard. Generally, 1024 transients were collected for each spectrum. […]

Row | Compound | μeff [1] [µB] | magnetic moment [1] [μB] | kex, peak at 95 ppm ([2]; peak at 95 ppm, pH 7.4, 37° C.) [s⁻¹] | kex, peak at 112 ppm ([2]; peak at 112 ppm, pH 7.4, 37° C.) [s⁻¹] | dissociation with competing Cu^II (in words) [3] | % Dissociation Anions [4] [%] | % Dissociation Acidic [4] [%] | dissociation in presence of phosphate and carbonate (in words) [4] | dissociation under acidic conditions (in words) [4] | dissociation under acidic conditions within the first hour ([4]; pD 3.5-3.9, 37° C., first hour) [%] | kex [2] [s⁻¹] | dissociation with competing Cu^II ([3]; over 4 hours) [%]
1 | NC(=O)CN1CCCN(CC(N)=O)CCN(CC(N)=O)CCCN(CC(N)=O)CC1.[Co+2] [[Co(CCRM)]^2+] | 4.6 | 4.6 | 910 | 510 | dissociating completely within one hour | 5 | 95 | doesn't dissociate | doesn't dissociate | 95 | – | –
2 | NC(=O)CN1CCOCCOCCN(CC(N)=O)CCOCC1.[Co+2] [[Co(NOPE)]^2+] | 4.1 | 4.1 | – | – | dissociating completely within one hour | <1 | 16 | doesn't dissociate | doesn't dissociate | – | 240 | –
3 | NC(=O)CN1CCN(CC(N)=O)CCN(CC(N)=O)CCN(CC(N)=O)CC1.[Co+2] [[Co(TCMC)]^2+] | 4.5 | 4.5 | – | – | inert to dissociation | 2 | 7 | doesn't dissociate | doesn't dissociate | – | 300 | –
4 | NC(=O)CN1CCN(CC(N)=O)CCN(CC(N)=O)CC1.[Co+2] [[Co(TCMT)]^2+] | 5.2 | 5.2 | – | – | – | 5 | 1 | doesn't dissociate | doesn't dissociate | – | 890 | ~15
